From patent US12268665B2, “Combination of immunotherapies with MDM2 inhibitors” (ASCENTAGE PHARMA (SUZHOU) CO., LTD., priority 2018, dated 2025) come the findings set out here.

Where two headings read alike, the source gives them in different places.

Series [1] can be described thus: Pharmacokinetic (PK) analysis in MH-22A tumor-bearing mice (LC/MS/MS). Format: in vivo, mouse. Particulars: mouse; for concentration at 4 h: oral, 100 mg/kg. As for the experimental part:
The quantitative LC/MS/MS analysis was conducted using an Exion HPLC system (AB Sciex, Ontario, Canada) coupled to an API 5500 mass spectrometer (AB Sciex, Ontario, Canada) equipped with an API electrospray ionization (ESI) source. The Phenomenex Titank phenyl-Hexyl column (50 mm×2.1 mm, 5 μm particle size) was used to achieved HPLC separation. The injection volume was 2 μl and the flow rate was kept constantly at 0.5 ml/min. Chromatography was performed with mobile phase A, acetonitrile:water:formic (5:95:0.1, by volume) and B, acetonitrile:water:formic (95:5:0.1, by volume). The mass spectrometer was operated at ESI positive ion mode for APG-115 while ESI negative mode for epacadostat. The detection of the ions was performed in the multiple reaction monitoring (MRM) mode, monitoring the transition of m/z 642.0→246.1 and 271.1→172.0 for APG-115 and IS (tolbutamide) in positive mode, 435.9→338.8 and 269.2→169.2 for epacadostat and IS (tolbutamide) in negative mode, respectively. Compounds parameters, declustering potential (DP), collision energy (CE) were 51, 61 V, 80, 18 V for APG-115 and IS in positive mode, −61, −15 V and −90, −23.5 V for epacadostat and IS in negative mode, respectively.
Blood and tumor samples were collected from 5 mice/group in group-1, group-2, group-3 and group-5 4 hrs after the final dose on […]. Blood samples were collected from 5 mice/group in group-4, group-6, group-7 and group-8 4 hrs after the final dose on d29. Approximately 100 μl blood were collected in EDTA-2K tube and 50 μl plasma were collected for PK analysis. All samples were stored at −80° C. until analysis.
In efficacy study of Example 2.1, mice in vehicle, APG-115 10 mg/kg and 50 mg/kg, and epacadostat single-agent groups were euthanized on d15 as described above. To assess PK characteristics of APG-115 and epacadostat in this study, plasma and tissue samples were collected 4 h after the last dosing on d15.

The subject of series [2] is MH-22A syngeneic tumor model. Description: Efficacy in the TIL analysis study, MH-22A model (d7). Format: in vivo, mouse. Particulars: APG-115 10 mg/kg p.o. q2d; anti-PD-1 5 mg/kg i.p. biw; epacadostat 100 mg/kg p.o. bid; × 6 d. As for the experimental part: Each mouse was inoculated subcutaneously at the right flank region with MH-22A tumor cells (5×10^6) in 0.2 mL of PBS for tumor development. The treatments were started when the mean tumor size reached 60 mm^3. The test articles were administered to the tumor-bearing mice according to the regimen shown in the experimental design Table 6. The day of start dosing was defined as d1.
Mice bearing MH-22A murine hepatoma tumors were treated with various agent(s) under different regimens as indicated. Isotype control antibody was included in the control.

For series [3], the system named is MH-22A murine hepatoma syngeneic model. Nature of the series: In vivo efficacy study in MH-22A model. Further details: species or system mouse. As to the method: Tumor volumes were measured twice weekly in two dimensions using a caliper, and the volume was expressed in mm^3 using the formula: Tumor Volume(mm^3)=0.5a×b^2 where a and b are the long and short diameters of the tumor, respectively.
Relative tumor volume (RTV) was calculated using the following formula: RTV=Vt/V1 Where V1 and Vt are the average tumor volumes on the first day of treatment (day 1) and the average tumor volumes on a certain time point (day t).
Synergy score was calculated using the following formula (Clarke R, Breast Cancer Research & Treatment, 1997, 46(2-3):255-278): Synergy score=((A/C)×(B/C))/(AB/C); A: response to treatment A; B: response to treatment B; C: response to vehicle control; AB: combination of treatment A and B.
Standard NCI procedures were used to calculate tumor parameters. Percent tumor growth inhibition (% T/C) was calculated as the mean RTV of treated tumors (T) divided by the mean RTV of control tumors (C)×100%. The percentage T/C value is an indication of antitumor effectiveness: a value of T/C<42% is considered significant antitumor activity by the NCI. A T/C value <10% is considered to indicate highly significant antitumor activity, and is the level used by the NCI to justify a clinical trial if toxicity and certain other requirements are met (termed DN-2 level activity). A body weight loss nadir (mean of group) of greater than 20%, or greater than 20% of drug deaths are considered to indicate an excessively toxic dosage.
Each mouse was inoculated subcutaneously at the right flank region with MH-22A tumor cells (5×10^6) in 0.2 mL of PBS for tumor development. The treatments were initiated when the mean tumor size reached ˜65 mm^3. The test articles were administered to the tumor-bearing mice according to the regimen shown in the experimental design Table 3. The day of start dosing was defined as d1.

The mark [4] stands for this setting: APG-115 10 mg/kg p.o. qd, anti-PD-1 10 mg/kg i.p. biw, epacadostat 100 mg/kg p.o. bid.

Turning to `NS(=O)(=O)NCCNc1nonc1C(=NO)Nc1ccc(F)c(Br)c1` [epacadostat, reference compound], the “pharmacokinetic interaction with anti-PD-1 antibody” value in series [1] (in vivo) was “no apparent pharmacokinetic interaction”. Further, the concentration at 4 h in series [1] (plasma, 100 mg/kg daily oral, alone, read-out: plasma concentration of epacadostat) came to 5890 ng/mL; in series [1] (plasma, 100 mg/kg daily oral, combined with anti-PD-1, read-out: plasma concentration of epacadostat), 8620 ng/mL; in series [1] (tumor, 100 mg/kg dosed alone, read-out: epacadostat concentration in tumor) it was 9260 ng/g. In series [2], the “RTV (Mean) d7” value is on record as 12.7. In addition, in series [2], the “T/C (%) d7” value is listed as 82%. In series [3] (setting [4]), the “RTV (Mean ± SEM) d15” value came to 49.1 ± 5.8. Moreover, the “T/C (%) d15” value in series [3] (setting [4]) was 128%. The “Response rate (%) d15” value in series [3] (APG-115 10 mg/kg, anti-PD-1 10 mg/kg, epacadostat 100 mg/kg, n=10) is reported as 0%. The “antitumor activity as single agents” value in series [3] (APG-115 10 and 50 mg/kg, epacadostat 100 mg/kg) is on record as “did not exert antitumor activity”.
